This test addresses PAN endonuclease (Influenza A virus, UniProt C3W5S0). The test can be described thus: FRET-based enzymatic assay of PAN endonuclease inhibition. It counts as biochemical.

As to “[Ru(2,2´-bipyridine)2(pyridine)2][Cl]2 [Compound 9]”, the “enzymatic inhibition upon light irradiation” value was “negligible”. In the case of `[Cl][Ru][Cl].c1ccc(-c2ccccn2)nc1.c1ccc(-c2ccccn2)nc1` [Compound 2, Ru(2,2´-bipyridine)2(Cl)2], the half-inhibitory concentration (IC50) (read-out: IC50 (dark)) was more than 100 µM.

Values taken from article PMC7944940 (Dalton transactions (Cambridge, England : 2003), 2021).
